{"source": "patent US12116371B2", "about": "“Substituted pyridines as irreversible inhibitors of menin-MLL interaction” (BIOMEA FUSION, INC., priority 2018, dated 2024)", "key": {"[1]": {"system": "SK-LU-1 cells", "assay": "Proliferation assay, cells in adhesion", "type": "cell-based", "conditions": "for IC50: Homo sapiens"}, "[2]": {"system": "MV4-11 cells", "assay": "Long term proliferation assay, Cell Titer-Glo read-out", "type": "cell-based, human", "conditions": "for IC50: Homo sapiens", "experimental": "(§1) Compounds of invention are tested in the 5 suspension lines by 14-day long-term proliferation assay.\n(§2) The compound is tested in 10-pt dose titration (client will determine the starting concentration and the dilution scheme) and the final DMSO concentration is kept at 0.2%.\n(§3) On Day 0, in a flat bottom 96-well plate, add 100 μL of cells per well at the densities optimized. Prepare compounds in DMSO at 500× final concentration. Dilute the compounds with DMSO at the dilution. Dilute the compounds in media at 3× final concentration. Add 50 μL of compound or DMSO at 3× final concentration to each well. Final volume in each well is 150 μL, and final concentration of DMSO is 0.2%. Also include 3 untreated control wells, by adding 50 μL of media alone. Incubate plates for 96 hours.\n(§4) To do this take the total viable cell count calculated using step: • 1. Take the average of the replicates for each dose in order to be used in splitting the cells. • 2. Use a 96 well V-bottom plate to spin down the cells to remove old media and compound to split the cells. • 3. Based on the split ratio place the proper amount of media and cells into the V-bottom plate, and spin the plate at 1100 rpm for 5 minutes. • 4. Following the spin remove the media, careful not to disturb the cell pellet. Re-suspend pellet in 100 μL fresh media, and add to a new 96-well flat bottom plate. • 5. Add fresh compound, in the same manner as Step 3). • 6. Incubate plates for 72 hours. Repeat steps 5)-10) on Day 7. • 7. Incubate plates for 96 hours. Repeat Step 5)-10) on Day 11. • 8. Incubate 72 hours and repeat step 5) to take a final count. • 9. Data Analysis\n(§5) To calculate growth for days 4, 7, 11, and 14: • 1. Calculate the split factor for day 4 to 7, day 7 to 11, and day 11-14. The split factor is the viable cells/mL on Day X (either 4, 7 or 11) divided by the density the cells are being split back to. • 2. For growth of cells from day 4 to 7, multiply the day 7 viable cells/mL density by the split factor from day 4. • 3. For growth of cells from day 7 to 11, multiply the day 11 viable cells/mL density by the days 4, and 7 split factors. • 4. For growth of cells from Day 11 to 14, multiply the Day 14 viable cells/mL density by the days 4, 7, and 11 split factors. • 5. Plot growth on semi-log chart (viable cells/mL on Y axis, in log, and days on X axis). • 6. The growth inhibition was calculated with the formula ((untreated cell numbers-treated cell numbers)/untreated cell)). • 7. Calculate the IC50 for each compound in each line using XLFit (Sigmoidal Dose-Response Model, y=(Bottom+((Top-Bottom)/(1+((IC50/×)^Hill)))))."}, "[3]": {"system": "MIAPaCa-2 cells", "assay": "Proliferation assay, cells in adhesion", "type": "cell-based", "conditions": "for IC50: Homo sapiens"}, "[4]": {"system": "OCI-AML-3 cells", "assay": "Long term proliferation assay, Cell Titer-Glo read-out", "type": "cell-based", "conditions": "for IC50: Homo sapiens; for % max: OCI-AML3", "experimental": "as §1, §2, §3, §4, §5"}, "[5]": {"system": "KG-1 cells", "assay": "Long term proliferation assay, Cell Titer-Glo read-out", "type": "cell-based", "conditions": "for IC50: Homo sapiens", "experimental": "as §1, §2, §3, §4, §5"}, "[6]": {"system": "SK-LU-1/AMG510 cells", "assay": "Proliferation assay, cells in adhesion", "type": "cell-based", "conditions": "for IC50: Homo sapiens"}}, "note": "Like-named read-outs stand apart in the source and are kept apart here.", "data": [{"compound": "CN(C)C/C=C/C(=O)Nc1ccc(CC(=O)Nc2ccc(-c3cc4c(N5CCOCC5)ncnc4[nH]3)cc2)cc1", "note": "[Compound 5]", "values": [{"measurement": "IC50", "setting": "[1]; SK-LU-1, SK-LU-1, T4, read-out: IC50", "value": "> 5000", "unit": "nM"}, {"measurement": "IC50", "setting": "[1]; SK-LU-1, SK-LU-1, T4, read-out: pIC50 (converted)", "value": "> 5010", "unit": "nM"}, {"measurement": "IC50", "setting": "[1]; SK-LU-1, SK-LU-1, T7, read-out: IC50", "value": "> 5000", "unit": "nM"}, {"measurement": "IC50", "setting": "[1]; SK-LU-1, SK-LU-1, T7, read-out: pIC50 (converted)", "value": "> 5010", "unit": "nM"}, {"measurement": "IC50", "setting": "[1]; SK-LU-1, SK-LU-1, T11, read-out: IC50", "value": "> 5000", "unit": "nM"}, {"measurement": "IC50", "setting": "[1]; SK-LU-1, SK-LU-1, T11, read-out: pIC50 (converted)", "value": "> 5010", "unit": "nM"}, {"measurement": "% max", "setting": "[1]; SK-LU-1, T4", "value": "<50", "unit": "%"}, {"measurement": "% max", "setting": "[1]; SK-LU-1, T7", "value": "<50", "unit": "%"}, {"measurement": "% max", "setting": "[1]; SK-LU-1, T11", "value": "<50", "unit": "%"}, {"measurement": "IC50", "setting": "[2]; MV4-11, 96 h, MV4-11, Day 4, Cell Titer-Glo, read-out: Day 4 IC50", "value": 360, "unit": "nM"}, {"measurement": "IC50", "setting": "[2]; MV4-11, 168 h, MV4-11, Day 7, Cell Titer-Glo, read-out: Day 7 IC50", "value": 140, "unit": "nM"}, {"measurement": "IC50", "setting": "[2]; MV4-11, 264 h, MV4-11, Day 11, Cell Titer-Glo, read-out: Day 11 IC50", "value": 110, "unit": "nM"}, {"measurement": "IC50", "setting": "[2]; MV4-11, 336 h, MV4-11, Day 14, Cell Titer-Glo, read-out: Day 14 IC50", "value": 90, "unit": "nM"}, {"measurement": "IC50", "setting": "[2]; MV4-11, MV4-11, T4, CellTiter-Glo, read-out: IC50", "value": 360, "unit": "nM"}, {"measurement": "IC50", "setting": "[2]; MV4-11, MV4-11, T4, CellTiter-Glo, read-out: pIC50 (converted)", "value": 363, "unit": "nM"}, {"measurement": "IC50", "setting": "[2]; MV4-11, MV4-11, T11, CellTiter-Glo, read-out: IC50", "value": 110, "unit": "nM"}, {"measurement": "IC50", "setting": "[2]; MV4-11, MV4-11, T11, CellTiter-Glo, read-out: pIC50 (converted)", "value": 115, "unit": "nM"}, {"measurement": "% max", "setting": "[2]; MV4-11, T4, CellTiter-Glo", "value": 99, "unit": "%"}, {"measurement": "% max", "setting": "[2]; MV4-11, T11, CellTiter-Glo", "value": 99, "unit": "%"}, {"measurement": "IC50", "setting": "[3]; MIA PaCa-2, MIAPaCa-2, T4, read-out: IC50", "value": 1480, "unit": "nM"}, {"measurement": "IC50", "setting": "[3]; MIA PaCa-2, MIAPaCa-2, T4, read-out: pIC50 (converted)", "value": 1480, "unit": "nM"}, {"measurement": "IC50", "setting": "[3]; MIA PaCa-2, MIAPaCa-2, T7, read-out: IC50", "value": 870, "unit": "nM"}, {"measurement": "IC50", "setting": "[3]; MIA PaCa-2, MIAPaCa-2, T7, read-out: pIC50 (converted)", "value": 871, "unit": "nM"}, {"measurement": "IC50", "setting": "[3]; MIA PaCa-2, MIAPaCa-2, T11, read-out: IC50", "value": 520, "unit": "nM"}, {"measurement": "IC50", "setting": "[3]; MIA PaCa-2, MIAPaCa-2, T11, read-out: pIC50 (converted)", "value": 525, "unit": "nM"}, {"measurement": "% max", "setting": "[3]; MIAPaCa-2, T4", "value": 95, "unit": "%"}, {"measurement": "% max", "setting": "[3]; MIAPaCa-2, T7", "value": 98, "unit": "%"}, {"measurement": "% max", "setting": "[3]; MIAPaCa-2, T11", "value": 99, "unit": "%"}, {"measurement": "IC50", "setting": "[4]; OCI-AML-3, 96 h, OCI-AML-3, Day 4, Cell Titer-Glo, read-out: Day 4 IC50", "value": 830, "unit": "nM"}, {"measurement": "IC50", "setting": "[4]; OCI-AML-3, 168 h, OCI-AML-3, Day 7, Cell Titer-Glo, read-out: Day 7 IC50", "value": 660, "unit": "nM"}, {"measurement": "IC50", "setting": "[4]; OCI-AML-3, 264 h, OCI-AML-3, Day 11, Cell Titer-Glo, read-out: Day 11 IC50", "value": 580, "unit": "nM"}, {"measurement": "IC50", "setting": "[4]; OCI-AML-3, 336 h, OCI-AML-3, Day 14, Cell Titer-Glo, read-out: Day 14 IC50", "value": 600, "unit": "nM"}, {"measurement": "IC50", "setting": "[4]; OCI-AML-3, OCI-AML3, T4, CellTiter-Glo, read-out: IC50", "value": 830, "unit": "nM"}, {"measurement": "IC50", "setting": "[4]; OCI-AML-3, OCI-AML3, T4, CellTiter-Glo, read-out: pIC50 (converted)", "value": 832, "unit": "nM"}, {"measurement": "IC50", "setting": "[4]; OCI-AML-3, OCI-AML3, T11, CellTiter-Glo, read-out: IC50", "value": 580, "unit": "nM"}, {"measurement": "IC50", "setting": "[4]; OCI-AML-3, OCI-AML3, T11, CellTiter-Glo, read-out: pIC50 (converted)", "value": 575, "unit": "nM"}, {"measurement": "% max", "setting": "[4]; T4, CellTiter-Glo", "value": 97, "unit": "%"}, {"measurement": "% max", "setting": "[4]; T11, CellTiter-Glo", "value": 99, "unit": "%"}, {"measurement": "IC50", "setting": "[5]; 96 h, Day 4, Cell Titer-Glo, read-out: Day 4 IC50", "value": "> 5000", "unit": "nM"}, {"measurement": "IC50", "setting": "[5]; 168 h, Day 7, Cell Titer-Glo, read-out: Day 7 IC50", "value": "> 5000", "unit": "nM"}, {"measurement": "IC50", "setting": "[5]; 264 h, Day 11, Cell Titer-Glo, read-out: Day 11 IC50", "value": 4680, "unit": "nM"}, {"measurement": "IC50", "setting": "[5]; 336 h, Day 14, Cell Titer-Glo, read-out: Day 14 IC50", "value": 4070, "unit": "nM"}, {"measurement": "IC50", "setting": "[5]; T4, CellTiter-Glo, read-out: IC50", "value": "> 5000", "unit": "nM"}, {"measurement": "IC50", "setting": "[5]; T4, CellTiter-Glo, read-out: pIC50 (converted)", "value": "> 5010", "unit": "nM"}, {"measurement": "IC50", "setting": "[5]; T11, CellTiter-Glo, read-out: IC50", "value": 4680, "unit": "nM"}, {"measurement": "IC50", "setting": "[5]; T11, CellTiter-Glo, read-out: pIC50 (converted)", "value": 4680, "unit": "nM"}, {"measurement": "% max", "setting": "[5]; T4, CellTiter-Glo", "value": "<50", "unit": "%"}, {"measurement": "% max", "setting": "[5]; T11, CellTiter-Glo", "value": 59, "unit": "%"}, {"measurement": "IC50", "setting": "[6]; SK-LU-1, SK-LU-1/AMG510, T4, read-out: IC50", "value": "> 5000", "unit": "nM"}, {"measurement": "IC50", "setting": "[6]; SK-LU-1, SK-LU-1/AMG510, T4, read-out: pIC50 (converted)", "value": "> 5010", "unit": "nM"}, {"measurement": "IC50", "setting": "[6]; SK-LU-1, SK-LU-1/AMG510, T7, read-out: IC50", "value": "> 5000", "unit": "nM"}, {"measurement": "IC50", "setting": "[6]; SK-LU-1, SK-LU-1/AMG510, T7, read-out: pIC50 (converted)", "value": "> 5010", "unit": "nM"}, {"measurement": "IC50", "setting": "[6]; SK-LU-1/AMG510, T11, read-out: IC50", "value": "> 5000", "unit": "nM"}, {"measurement": "IC50", "setting": "[6]; SK-LU-1/AMG510, T11, read-out: pIC50 (converted)", "value": "> 5010", "unit": "nM"}, {"measurement": "% max", "setting": "[6]; SK-LU-1/AMG510, T4", "value": "<50", "unit": "%"}, {"measurement": "% max", "setting": "[6]; SK-LU-1/AMG510, T7", "value": "<50", "unit": "%"}, {"measurement": "% max", "setting": "[6]; SK-LU-1/AMG510, T11", "value": "<50", "unit": "%"}]}]}
